Series [1] has as its system stable HCV 1a RLuc replicon cells (genotype 1a H77 replicon). In words: microbe, parasite or virus in culture. The class given is cell-based. Conditions: Hepatitis C virus.
Series [2] has as its system stable HCV 2a JFH-1 Rluc replicon cells (L31 present in NS5A). In words: microbe, parasite or virus in culture. The class given is cell-based. As to conditions: Hepatitis C virus.
Series [3] has as its system NS5A chimeric genotype 1b Con1 replicon with genotype 3a S52 strain NS5A gene. In words: microbe, parasite or virus in culture. The class given is cell-based, HCV. Conditions: Hepatitis C virus. Summed up:
(§1)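 Con1-based 3a and 4a chimeras carried a Pi-RLuc reporter and were transiently transfected into Huh-Lunet cells; the JFH-1-based 2b chimera (RLuc-Neo) was used transiently or as stable replicon cells.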

For series [4], the system named is NS5A chimeric genotype 2a JFH-1 replicon with genotype 2a J6 strain NS5A gene (M31 present). Briefly: microbe, parasite or virus in culture. The class given is cell-based, HCV. As to conditions: Hepatitis C virus.
The subject of series [5] is NS5A chimeric genotype 2a JFH-1 replicon with genotype 2b MD2b-1 strain NS5A gene (M31 present). In words: microbe, parasite or virus in culture. As to conditions: Hepatitis C virus. The class given is cell-based, HCV. Summed up: as §1
Series [6] concerns 1a Pi-Rluc replicon with Q30R in genotype 1a NS5A. In words: microbe, parasite or virus in culture. As to conditions: Hepatitis C virus. The class given is cell-based, HCV. In outline: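 Renilla luciferase replicon assay: 1a Pi-RLuc replicon carrying NS5A Q30R, transfected transiently into cured-51 (Huh-7-derived) cells.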
Series [7] is described as follows: IV and PO single dose pharmacokinetic studies in SD rats. Conditions: male, Sprague-Dawley, rat, plasma, IV infusion 1 mg/kg vs oral gavage 2 mg/kg, read-out: Rat % F. The class given is in vivo. On the procedure: IV and PO Single Dose Pharmacokinetic Studies in SD Rats: The pharmacokinetics of selected compounds was characterized in male Sprague-Dawley (SD) rats (250-300g). […] The intravenous (IV) dosing vehicle was 5% ethanol, 35% polyethylene glycol 400 (PEG 400) and 60% water pH 2.0. […] Serial blood samples (approximately 0.3 mL each) were collected from jugular vein or other suitable vein at specified time points. […] The blood samples were collected into Vacutainer™ tubes containing EDTA-K3 as the anti-coagulant and were centrifuged at approximately 4° C. to obtain plasma. The plasma samples were stored at −20° C. until analysis by LC/MS/MS. A bioanalytical method utilizing high performance liquid chromatography coupled to tandem mass spectrometry (LC/MS/MS) was developed for analysis of the selected compound in rat plasma. Detection was performed using selected reaction monitoring (SRM); […] Standard curve and quality control samples were prepared in male rat plasma and processed in the same way as the test samples to generate quantitative data. Pharmacokinetic parameters were generated using non-compartmental pharmacokinetic analysis (Phoenix WinNonlin, version 6.3). Values below the lower limit of quantification (LLOQ) were assigned a value of zero if predose and treated as missing thereafter. Area under the curve (AUC) was calculated using the linear trapezoidal rule. The oral bioavailability (% F) was determined by comparison of the area under the curve (AUC) of the compound and/or a metabolite generated in plasma following oral administration to that generated following intravenous administration.

Like-named read-outs stand apart in the source and are kept apart here. A value given as a limit tells only on which side of the number the result lay.

With `COC[C@H]1C[C@@H](c2ncc(-c3ccc4c(c3)COc3cc5c(ccc6nc([C@@H]7C[C@H](C)CN7C(=O)[C@@H](NC(=O)OC)C(C)C)[nH]c65)cc3-4)[nH]2)N(C(=O)[C@H](NC(=O)OC)c2ccccc2)C1` [Example NM, Methyl {(1R)-2-[(2S,4S)-2-(5-{2-[(2S,4S)-1-{(2S)-2-[(methoxycarbonyl)amino]-3-methylbutanoyl}-4-methylpyrrolidin-2-yl]-1,11-dihydroisochromeno[4′,3′:6,7]naphtho[1,2-d]imidazol-9-yl}-1H-imidazol-2-yl)-4-(methoxymethyl)pyrrolidin-1-yl]-2-oxo-1-phenylethyl}carbamate], the EC50 was less than 1 nM in series [1] (read-out: 1a); 0.011 nM in series [1] (read-out: 1a (nM)); less than 1 nM in series [2] (read-out: 2a JFH); 0.006 nM in series [2] (read-out: 2a JFH (nM)); less than 1 nM in series [3] (read-out: 3a); 0.024 nM in series [3] (read-out: 3a (nM)). For the same compound, the EC50 is less than 1 nM in series [4] (read-out: 2a J6); 0.012 nM in series [4] (read-out: 2a Jb (t) (nM)); less than 1 nM in series [5] (read-out: 2b); 0.013 nM in series [5] (read-out: 2b (t) (nM)); less than 1 nM in series [6] (read-out: 1a Q30R); 0.028 nM in series [6] (read-out: 1a Q30R (nM)). Moreover, in series [7], the bioavailability is 6.93%.

As to `COC[C@H]1C[C@@H](c2ncc(-c3ccc4c(c3)COc3cc5c(cc3-4)CCc3nc([C@@H]4CC[C@H](C)N4C(=O)[C@@H](NC(=O)OC)C(C)C)[nH]c3-5)[nH]2)N(C(=O)[C@H](NC(=O)OC)c2ccccc2)C1` [Example OH, methyl {(1R)-2-[(2S,4S)-2-(5-{2-[(2S,5S)-1-{(2S)-2-[(methoxycarbonyl)amino]-3-methylbutanoyl}-5-methylpyrrolidin-2-yl]-1,4,5,11-tetrahydroisochromeno[4′,3′:6,7]naphtho[1,2-d]imidazol-9-yl}-1H-imidazol-2-yl)-4-(methoxymethyl)pyrrolidin-1-yl]-2-oxo-1-phenylethyl}carbamate], the EC50 was less than 1 nM in series [1] (read-out: 1a); 0.016 nM in series [1] (read-out: 1a (nM)); less than 1 nM in series [2] (read-out: 2a JFH); 0.007 nM in series [2] (read-out: 2a JFH (nM)); less than 1 nM in series [3] (read-out: 3a); 0.026 nM in series [3] (read-out: 3a (nM)). The EC50 is less than 1 nM in series [4] (read-out: 2a J6); 0.054 nM in series [4] (read-out: 2a Jb (t) (nM)); less than 1 nM in series [5] (read-out: 2b); 0.022 nM in series [5] (read-out: 2b (s) (nM)); 0.023 nM in series [5] (read-out: 2b (t) (nM)); less than 1 nM in series [6] (read-out: 1a Q30R). In series [6] (read-out: 1a Q30R (nM)), the EC50 came out at 0.031 nM. For the same compound, the bioavailability in series [7] was found to be 22.7%.

For the compound `COC[C@H]1C[C@@H](c2nc3ccc4cc5c(cc4c3[nH]2)OCc2cc(-c3cnc([C@@H]4CC[C@H](C)N4C(=O)[C@@H](NC(=O)OC)C(C)C)[nH]3)ccc2-5)N(C(=O)[C@@H](NC(=O)OC)[C@@H](C)OC)C1` [Example OM, Methyl {(2S)-1-[(2S,4S)-2-(5-{2-[(2S,5S)-1-{(2S,3R)-3-methoxy-2-[(methoxycarbonyl)amino]butanoyl}-4-(methoxymethyl)pyrrolidin-2-yl]-1,11-dihydroisochromeno[4′,3′:6,7]naphtho[1,2-d]imidazol-9-yl}-1H-imidazol-2-yl)-5-methylpyrrolidin-1-yl]-3-methyl-1-oxobutan-2-yl}carbamate], the EC50 in series [1] (read-out: 1a) was less than 1 nM; in series [1] (read-out: 1a (nM)) it was 0.014 nM; in series [2] (read-out: 2a JFH) it was less than 1 nM; in series [2] (read-out: 2a JFH (nM)), 0.009 nM; in series [3] (read-out: 3a) it was less than 1 nM; in series [3] (read-out: 3a (nM)) it was 0.035 nM. Further, the EC50 in series [4] (read-out: 2a J6) was less than 1 nM; in series [4] (read-out: 2a Jb (t) (nM)), 0.045 nM; in series [5] (read-out: 2b) it was less than 1 nM; in series [5] (read-out: 2b (s) (nM)), 0.054 nM; in series [5] (read-out: 2b (t) (nM)), 0.053 nM; in series [6] (read-out: 1a Q30R) it was less than 1 nM. Besides, the EC50 in series [6] (read-out: 1a Q30R (nM)) amounted to 0.035 nM. Besides, the bioavailability in series [7] was found to be 12.2%.
